The record followed here is ChEMBL document CHEMBL5729264, “Bicyclic compounds” (2022).

In general, IC50 refers to the concentration at which inhibition is half-maximal. Read a low IC50 as greater potency in that assay.

This assay in a line: Dual-Glo Luciferase Assay: The Dual-Glo Luciferase Reagent was prepared by transferring the contents of one bottle of Dual-Glo Luciferase Buffer to one bottle of Dual-Glo Luciferase Substrate to create the Dual-Glo Luciferase Reagent. Mixing was performed by inversion until the substrate was thoroughly dissolved. After mixing, the reagent was aliquoted into 15 ml tubes. In the afternoon (24 hrs post compound treatment), the DMEM+medium in the 384 well plates were aspirated by Microplate Washer.Measuring firefly luciferase activity: 20 ul Dual-Glo Luciferase Reagent was added to the 384-well plates. The plates were protected from light to prevent interference with the assay. The plates were shaken for 1 min followed centrifuging plates at 1000 rpm for 30 seconds. After waiting at least 10 minutes, the firefly luminescence was measured by Envision.Measuring renilla luciferase activity: 20 ul Stop-Glo Reagent was added to the 384-well plates. The plates were shaken for 1 min and then centrifuged at 1000 rpm for 30 seconds. After waiting at least 10 minutes, the renilla luminescence was measured by Envision.Compound IC50 and maximum inhibition on the firefly luciferase and renilla luciferase activities were reported separately.

In turn, `CS(=O)(=O)NC(=O)c1ccc2c(Oc3ccc(C(F)(F)F)cc3)cccc2c1` returned an IC50 below 100 nM.
Next, `CC(C)NC(=O)c1ccc2c(Oc3cccc(Cl)c3)cccc2c1`: below 100 nM; `N#CCNC(=O)c1ccc2c(Oc3ccc(C(F)(F)F)cc3)cccc2c1`: below 100 nM; `CC(C)NC(=O)c1ccc2c(Oc3ccc(Cl)c(Cl)c3)cccc2c1`: below 100 nM.
Next, `CC(C)NC(=O)c1ccc2c(Oc3ccc(C(F)(F)F)cc3)cccc2c1`: below 100 nM.
As to `C#C[C@@H](C)NC(=O)c1ccc2c(Oc3ccc(C(F)(F)F)cc3)cccc2c1`, the IC50 was below 100 nM.
To `C[C@H](NC(=O)c1ccc2c(Oc3ccc(C(F)(F)F)cc3)cccc2c1)c1c[nH]cn1` belongs below 100 nM; to `C[C@H](NC(=O)c1ccc2c(Oc3ccc(C(F)(F)F)cc3)cccc2c1)c1cccc(N)n1`, “in the range around 550 nM”; to `C[C@@H](NC(=O)c1ccc2c(Oc3ccc(C(F)(F)F)cc3)cccc2c1)c1c[nH]cn1`, below 100 nM.
Next, `C#C[C@H](C)NC(=O)c1ccc2c(Oc3ccc(C(F)(F)F)cc3)cccc2c1`: below 100 nM.
To `O=C(NC(CO)c1ccccn1)c1ccc2c(Oc3ccc(C(F)(F)F)cc3)cccc2c1` (stereo not given) belongs below 100 nM.
In turn, `C[C@H](NC(=O)c1ccc2c(Oc3ccc(C(F)(F)F)cc3)cccc2c1)C1COC1` displayed an IC50 below 100 nM.
Molecule `C[C@H](CO)NC(=O)c1ccc2c(Oc3ccc(C(F)(F)F)cc3)nccc2c1` gave an IC50 below 100 nM.
Next, `CNCCCNC(=O)c1ccc2c(Oc3ccc(C(F)(F)F)cc3)cccc2c1`: below 100 nM.
To `C[C@@H](NC(=O)c1ccc2c(Oc3ccc(C(F)(F)F)cc3)cccc2c1)c1nnn(C)n1` belongs “in the range around 550 nM”; to `C[C@H](NC(=O)c1ccc2c(Oc3ccc(C(F)(F)F)cc3)cccc2c1)c1cccc(N(C)C)n1`, “in the range around 550 nM”; to `C[C@@H](NC(=O)c1ccc2c(Oc3ccc(C(F)(F)F)cc3)cccc2c1)c1cccnc1N`, “in the range around 2000 nM”.
To `CS(=O)(=O)NC(=O)c1ccc2c(Oc3ccc(Cl)c(Cl)c3)cccc2c1` belongs below 100 nM; to `C#CCNC(=O)c1ccc2c(Oc3ccc(C(F)(F)F)cc3)cccc2c1`, below 100 nM; to `COC[C@@H](C)NC(=O)c1ccc2c(Oc3ccc(C(F)(F)F)cc3)cccc2c1`, below 100 nM.
In the case of `C[C@H](NC(=O)c1ccc2c(Oc3ccc(C(F)(F)F)cc3)cccc2c1)c1ncc[nH]1`, the IC50 entry is “in the range around 550 nM”.
Next, `C[C@H](CO)NC(=O)c1cc2cccc(Oc3ccc(C(F)(F)F)cc3)c2s1`: below 100 nM.
To `C[C@@H](NC(=O)c1ccc2c(Oc3ccc(C(F)(F)F)cc3)cccc2c1)c1cccc(N(C)C)n1` belongs below 100 nM.
Regarding `COc1cc(Oc2ccc(C(F)(F)F)cc2)c2ncc(C(=O)N[C@H](C)c3ccccn3)cc2c1`, the IC50 entry was “in the range around 550 nM”.
`C[C@@H](NC(=O)c1ccc2c(Oc3ccc(C(F)(F)F)cc3)cccc2c1)c1cc(N)ccn1` yielded an IC50 below 100 nM.
Next, `C[C@H](NC(=O)c1ccc2c(Oc3ccc(C(F)(F)F)cc3)cccc2c1)c1nn[nH]n1`: “in the range around 2000 nM”; `C[C@H](NC(=O)c1ccc2c(Oc3ccc(C(F)(F)F)cc3)cccc2c1)c1cnccn1`: “in the range around 550 nM”.
Next, `CC(NC(=O)c1ccc2c(Oc3ccc(C(F)(F)F)cc3)cccc2c1)c1cc(Br)ccn1` (stereo not given): below 100 nM.
Next, `O=C(NC1(c2ccccc2)CC1)c1ccc2c(Oc3ccc(C(F)(F)F)cc3)cccc2c1`: below 100 nM; `COC[C@H](C)NC(=O)c1ccc2c(Oc3ccc(C(F)(F)F)cc3)cccc2c1`: below 100 nM.
With `COC[C@@H](C)NC(=O)c1cnc2c(Oc3ccc(C(F)(F)F)cc3)cc(OC)cc2c1`, the IC50 is below 100 nM.
To `C[C@H](NC(=O)c1ccc2c(Oc3ccc(C(F)(F)F)cc3)cccc2c1)C1CCC1` belongs below 100 nM.
Next, `C[C@H](NC(=O)c1ccc2c(Oc3ccc(C(F)(F)F)cc3)cccc2c1)c1ccccn1`: below 100 nM.
To `CC(C)NC(=O)c1cnc2c(Oc3ccc(C(F)(F)F)cc3)cc(F)c(F)c2c1` belongs below 100 nM; to `CN(C#N)CCCNC(=O)c1ccc2c(Oc3ccc(C(F)(F)F)cc3)cccc2c1`, below 100 nM.
For `C[C@@H](NC(=O)c1ccc2c(Oc3ccc(C(F)(F)F)cc3)cccc2c1)c1cnccn1`, the IC50 is below 100 nM.
Next, `COC[C@H](C)NC(=O)c1cnc2c(Oc3ccc(C(F)(F)F)cc3)cc(OC)cc2c1`: below 100 nM.
Take `C[C@@H](NC(=O)c1ccc2c(Oc3ccc(C(F)(F)F)cc3)cccc2c1)c1ccccn1`: the IC50 entry is “in the range around 550 nM”.
Next, `C[C@H](NC(=O)c1cnc2c(Oc3ccc(C(F)(F)F)cc3)cccc2c1)c1ccccn1`: below 100 nM.
Next, `CS(=O)(=O)NC(=O)c1ccc2c(Oc3ccc(F)c(F)c3)cccc2c1`: below 100 nM; `C[C@@H](NC(=O)c1ccc2c(Oc3ccc(C(F)(F)F)cc3)cccc2c1)C(N)=O`: below 100 nM; `CNS(=O)(=O)c1ccc2c(Oc3ccc(C(F)(F)F)cc3)cccc2c1`: below 100 nM.
To `C[C@H](CO)NC(=O)c1ccc2c(Oc3ccc(C(F)(F)F)cc3)cccc2c1` belongs below 100 nM.
On to `CC(C)NC(=O)c1ccc2c(Oc3ccc(F)c(F)c3)cccc2c1`, for which the IC50 is below 100 nM.
To `C[C@@H](NC(=O)c1ccc2c(Oc3ccc(C(F)(F)F)cc3)cccc2c1)c1cccc(N)n1` belongs below 100 nM.
To `C[C@@H](NC(=O)c1ccc2c(Oc3ccc(C(F)(F)F)cc3)cccc2c1)C1COC1` belongs below 100 nM; to `CC(C)NC(=O)c1ccc2c(Oc3ccc(Cl)cc3)cccc2c1`, below 100 nM.
Consider `O=C(NC(CO)c1ccccn1)c1cnc2c(Oc3ccc(C(F)(F)F)cc3)cccc2c1` (stereo not given), for which the IC50 is below 100 nM.
Next, `C[C@@H](NC(=O)c1ccc2c(Oc3ccc(C(F)(F)F)cc3)cccc2c1)c1cc(N(C)C)ccn1`: “in the range around 2000 nM”.
To `C[C@@H](NC(=O)c1ccc2c(Oc3ccc(C(F)(F)F)cc3)cccc2c1)C1CCC1` belongs below 100 nM.
Next, `CNCCNC(=O)c1ccc2c(Oc3ccc(C(F)(F)F)cc3)cccc2c1`: “in the range around 550 nM”.
Consider `C[C@H](NC(=O)c1ccc2c(Oc3ccc(C(F)(F)F)cc3)cccc2c1)C(N)=O`, for which the IC50 is below 100 nM.
Molecule `C#CCCNC(=O)c1ccc2c(Oc3ccc(C(F)(F)F)cc3)cccc2c1` came in with an IC50 below 100 nM.
To `CC(C)NC(=O)c1ccc2c(Oc3ccc(C(F)(F)F)cc3)cccc2n1` belongs below 100 nM.
For the molecule `CC(C)NC(=O)c1ccc2c(Oc3ccc(C(F)(F)F)cc3)ccnc2c1`, the IC50 entry is “in the range around 550 nM”.
Next, `C[C@H](NC(=O)c1ccc2c(Oc3ccc(C(F)(F)F)cc3)cccc2c1)c1cc(N)ccn1`: “in the range around 550 nM”.
As to `CC(C)NC(=O)c1cnc2c(Oc3ccc(C(F)(F)F)cc3)cccc2c1`, the IC50 is below 100 nM.
To `CC(C)NC(=O)c1ccc2c(Oc3ccc(C(F)(F)F)cc3)nccc2c1` belongs below 100 nM.
To `COC[C@H](C)NC(=O)c1cnc2c(Oc3ccc(C(F)(F)F)cc3)cccc2c1` belongs below 100 nM; to `CN(C#N)CCNC(=O)c1ccc2c(Oc3ccc(C(F)(F)F)cc3)cccc2c1`, below 100 nM.
To `O=C(NC(CO)Cc1ccccn1)c1ccc2c(Oc3ccc(C(F)(F)F)cc3)cccc2c1` (stereo not given) belongs below 100 nM; to `CNS(=O)(=O)c1ccc2c(Oc3ccc(Cl)c(Cl)c3)cccc2c1`, below 100 nM; to `CC(C)NC(=O)c1cc2cccc(Oc3ccc(C(F)(F)F)cc3)c2s1`, below 100 nM.
Regarding `C[C@H](NC(=O)c1ccc2c(Oc3ccc(C(F)(F)F)cc3)cccc2c1)c1nnnn1C`, the IC50 result is “in the range around 550 nM”.
To `N#CCCNC(=O)c1ccc2c(Oc3ccc(C(F)(F)F)cc3)cccc2c1` belongs below 100 nM; to `C[C@H](NC(=O)c1ccc2c(Oc3ccc(C(F)(F)F)cc3)cccc2c1)c1nnn(C)n1`, below 100 nM; to `O=C(NC1(c2ccccn2)CC1)c1ccc2c(Oc3ccc(C(F)(F)F)cc3)cccc2c1`, below 100 nM.
To `C[C@H](NC(=O)c1ccc2c(Oc3ccc(C(F)(F)F)cc3)cccc2c1)c1nccn1C` belongs “in the range around 550 nM”.
To `C[C@H](NC(=O)c1ccc2c(Oc3ccc(C(F)(F)F)cc3)cccc2c1)c1cc(N(C)C)ccn1` belongs “in the range around 550 nM”.
For the molecule `C[C@@H](NC(=O)c1ccc2c(Oc3ccc(C(F)(F)F)cc3)cccc2c1)c1ncc[nH]1`, the IC50 was below 100 nM.
Next, `COC[C@@H](C)NC(=O)c1cnc2c(Oc3ccc(C(F)(F)F)cc3)cccc2c1`: “in the range around 550 nM”; `O=C(NC1(c2ccccc2)COC1)c1ccc2c(Oc3ccc(C(F)(F)F)cc3)cccc2c1`: below 100 nM.
In turn, `C[C@@H](NC(=O)c1ccc2c(Oc3ccc(C(F)(F)F)cc3)cccc2c1)C1CC1` registered an IC50 below 100 nM.
To `COc1cc(Oc2ccc(C(F)(F)F)cc2)c2ncc(C(=O)N[C@@H](C)c3ccccn3)cc2c1` belongs below 100 nM.
To `C[C@@H](NC(=O)c1cnc2c(Oc3ccc(C(F)(F)F)cc3)cccc2c1)c1ccccn1` belongs “in the range around 550 nM”.
Next, `C[C@@H](NC(=O)c1ccc2c(Oc3ccc(C(F)(F)F)cc3)cccc2c1)c1nnnn1C`: “in the range around 550 nM”; `C[C@H](NC(=O)c1ccc2c(Oc3ccc(C(F)(F)F)cc3)cccc2c1)C1CC1`: below 100 nM; `C[C@H](NC(=O)c1ccc2c(Oc3ccc(C(F)(F)F)cc3)cccc2c1)c1cccnc1N`: below 100 nM.
With `C[C@@H](NC(=O)c1ccc2c(Oc3ccc(C(F)(F)F)cc3)cccc2c1)c1nccn1C`, the IC50 entry was “in the range around 550 nM”.
Next, `C[C@H](CO)NC(=O)c1cnc2c(Oc3ccc(C(F)(F)F)cc3)cccc2c1`: below 100 nM.
